US20100119599A1 (ARCHER PHARMACEUTICALS, INC., priority 2006, published 2010)
Read-outs that look alike come from different tables or passages of the source.

Experiments:
Aβ1-40 = assay: Measurement of Aβ1-40 in culture medium of 7W WT APP751 CHO cells by ELISA; format: cell-based, Chinese hamster; conditions: for activity at 5 µM: Cricetulus griseus, 5 μM test compound, CHO cells stably transfected with human APP751, culture medium, ELISA, control DMSO; for Aβ1-40 (% of control): CHO cells that overexpress APP751, zero = below the detection limit of the assay;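 on all read-outs here: 5 µM test compound but RI-coded compounds at 10 µM for 24 hours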
Aβ1-42 = assay: Measurement of Aβ1-42 in culture medium of 7W WT APP751 CHO cells by ELISA; format: cell-based, Chinese hamster; conditions: for activity at 5 µM: Cricetulus griseus, 5 μM test compound, CHO cells stably transfected with human APP751, culture medium, ELISA, control DMSO; for Aβ1-42 (% of control): CHO cells that overexpress APP751, zero = below the detection limit of the assay;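 on Aβ1-42 (% of control): 5 µM test compound but RI-coded compounds at 10 µM for 24 hours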
[1] = Table 1, 0 = no detectable amount
[2] = Table 1, 0 = no detectable amount, read-out: Aβ1-42 (% of control)
[3] = Table 3, read-out: Aβ-42 (% of control)

SMILES	activity at 5 µM (Aβ1-40; [1]) [%]	activity at 5 µM (Aβ1-42; [2]) [%]	further results
CCOCCOC(=O)C1=C(C)NC2=C(C(=O)CC(c3ccccc3)C2)C1c1ccccc1F (stereo not drawn) [ST017312, 2-ethoxyethyl 4-(2-fluorophenyl)-2-methyl-5-oxo-7-phenyl-1,4,6,7,8-pentahydroquinoline-3-carboxylate]	15.3	71.2	–
CCOCCOC(=O)C1=C(C)NC2=C(C(=O)CC(c3ccccc3)C2)C1c1ccc(Br)cc1 (stereo not drawn) [ST017313, 2-ethoxyethyl 4-(4-bromophenyl)-2-methyl-5-oxo-7-phenyl-1,4,6,7,8-pentahydroquinoline-3-carboxylate]	44.2	85.4	–
CC1=C(C(=O)OCCOc2ccccc2)C(c2cccc(O)c2)C2=C(CC(c3ccccc3)CC2=O)N1 (stereo not drawn) [ST017315, 2-phenoxyethyl 4-(3-hydroxyphenyl)-2-methyl-5-oxo-7-phenyl-1,4,6,7,8-pentahydroquinoline-3-carboxylate]	43.8	53.9	–
CCC(C)OC(=O)C1=C(C)NC2=C(C(=O)CC(c3ccccc3)C2)C1c1ccc(Cl)c(Cl)c1 (stereo not drawn) [ST017319, methylpropyl 4-(3,4-dichlorophenyl)-2-methyl-5-oxo-7-phenyl-1,4,6,7,8-pentahydroquinoline-3-carboxylate]	26.8	97.5	–
COc1cccc(C2C(C(=O)OC(C)C)=C(C)NC3=C2C(=O)CC(c2ccc(Cl)cc2)C3)c1OC (stereo not drawn) [ST017324, methylethyl 4-(2,3-dimethoxyphenyl)-7-(4-chlorophenyl)-2-methyl-5-oxo-1,4,6,7,8-pentahydroquinoline-3-carboxylate]	30.2	99.2	–
CC1=C(C(=O)OC(C)C)C(c2cccnc2)C2=C(CC(c3ccc(Cl)cc3)CC2=O)N1 (stereo not drawn) [ST017331, methylethyl 7-(4-chlorophenyl)-2-methyl-5-oxo-4-(3-pyridyl)-1,4,6,7,8-pentahydroquinoline-3-carboxylate]	1.11	0	–
CCCCCOC(=O)C1=C(C)NC2=C(C(=O)CCC2)C1c1cccc(O)c1 (stereo not drawn) [ST017336, pentyl 4-(3-hydroxyphenyl)-2-methyl-5-oxo-1,4,6,7,8-pentahydroquinoline-3-carboxylate]	62.9	72.7	–
CC1=C(C(=O)OCC(C)C)C(c2ccc(OCc3ccccc3)cc2)C2=C(CCCC2=O)N1 (stereo not drawn) [ST017342, 2-methylpropyl 2-methyl-5-oxo-4-[4-(phenylmethoxy)phenyl]-1,4,6,7,8-pentahydroquinoline-3-carboxylate]	28.8	93.5	–
COc1ccc(OC)c(C2C(C#N)=C(C)NC3=C2C(=O)CC(c2ccccc2)C3)c1 (stereo not drawn) [ST018638, 4-(2,5-dimethoxyphenyl)-2-methyl-5-oxo-7-phenyl-1,4,6,7,8-pentahydroquinoline-3-carbonitrile]	45.4	53.8	–
COc1ccc(COC(=O)C2=C(C)NC3=C(C(=O)CCC3)C2c2ccc(Br)cc2)cc1 (stereo not drawn) [ST018645, (4-methoxyphenyl)methyl 4-(4-bromophenyl)-2-methyl-5-oxo-1,4,6,7,8-pentahydroquinoline-3-carboxylate]	7.03	18	–
COc1ccc(COC(=O)C2=C(C)NC3=C(C(=O)CCC3)C2c2ccc(Cl)cc2)cc1 (stereo not drawn) [ST018648, (4-methoxyphenyl)methyl 4-(4-chlorophenyl)-2-methyl-5-oxo-1,4,6,7,8-pentahydroquinoline-3-carboxylate]	7.49	11	–
N#CC(C#N)=CC=C1C=CN(C2CCCCC2)C=C1 [ST019328]	–	–	activity at 5 µM (Aβ1-40; Table 3): 59%; activity at 5 µM (Aβ1-42; [3]): 92.2%
CCOC(=O)C1=C(C)NC2=C(C(=O)CC(C)(C)C2)C1c1ccc(Cl)cc1Cl (stereo not drawn) [ST020008, ethyl 4-(2,4-dichlorophenyl)-2,7,7-trimethyl-5-oxo-1,4,6,7,8-pentahydroquinoline-3-carboxylate]	61.7	95.7	–
CCCCCc1c2c(C)c(C(=O)OCC)cc-2cc2n1C(C)C(C)=C2C (stereo not drawn) [ST020165, ethyl 3,6,7,8-tetramethyl-4-pentyl-6-hydropyrrolo[4,5-f]indolizine-2-carboxyla te, chloride]	–	–	activity at 5 µM (Aβ1-40; Table 3): 90.9%; activity at 5 µM (Aβ1-42; [3]): 23.1%
CCOC(=O)C1=C(C)NC2=C(C(=O)CCC2)C1c1cc(Br)c(C)s1 (stereo not drawn) [ST020910, ethyl 4-(4-bromo-5-methyl(2-thienyl))-2-methyl-5-oxo-1,4,6,7,8-pentahydroquinoline-3-carboxylate]	47.3	69.8	–
Cc1ccccc1N1C2=C(C(=O)CC(C)(C)C2)C(c2ccccc2)C2=C1c1ccccc1C2=O (stereo not drawn) [ST024318, 3,3-dimethyl-5-(2-methylphenyl)-11-phenyl-2,3,4,5,11-pentahydroindeno[3,2-b]quinoline-1,10-dione]	64.9	99.5	–
CCOC(=O)C1=C(N)n2c(s/c(=C\c3ccncc3)c2=O)=C(C#N)C1c1ccncc1 (stereo not drawn) [ST024405, ethyl 5-amino-8-cyano-3-oxo-7-(4-pyridyl)-2-(4-pyridylmethylene)-4,7-dihydro-1,3-thiazolidino[3,2-a]pyridine-6-carboxylate]	–	–	Aβ1-40 (% of control) (Aβ1-40): 59.66 % of control; Aβ1-42 (% of control) (Aβ1-42): 77.41 % of control
CCCCOC(=O)C1=C(C)NC2=C(C(=O)CC(C)(C)C2)C1c1ccc(Cl)cc1 (stereo not drawn) [ST024431, butyl 4-(4-chlorophenyl)-2,7,7-trimethyl-5-oxo-1,4,6,7,8-pentahydroquinoline-3-carboxylate]	0	0	–
CCOC(=O)C1=C(C)NC2=C(C(=O)CCC2)C1c1ccc(Cl)cc1 (stereo not drawn) [ST024440, ethyl 4-(4-chlorophenyl)-2-methyl-5-oxo-1,4,6,7,8-pentahydroquinoline-3-carboxylate]	63.1	97.7	–
CCOC(=O)C1=C(C)NC2=C(C(=O)CCC2)C1c1ccc(Cl)cc1Cl (stereo not drawn) [ST024444, ethyl 4-(2,4-dichlorophenyl)-2-methyl-5-oxo-1,4,6,7,8-pentahydroquinoline-3-carboxylate]	37.4	16.6	–
CC1=C(C(=O)OC2CCCCCC2)C(c2cccc(Br)c2)C2=C(CC(C)(C)CC2=O)N1 (stereo not drawn) [ST024487, cycloheptyl 4-(3-bromophenyl)-2,7,7-trimethyl-5-oxo-1,4,6,7,8-pentahydroquinoline-3-carboxylate]	5.07	3.77	–
COc1ccc(C2C(C(=O)OC3CCCCCC3)=C(C)NC3=C2C(=O)CC(C)(C)C3)c(OC)c1OC (stereo not drawn) [ST024504, cycloheptyl 2,7,7-trimethyl-5-oxo-4-(2,3,4-trimethoxyphenyl)-1,4,6,7,8-pentahydroquinoline-3-carboxylate]	0.415	0	–
COC(=O)C1=C(C)N(C)C(C)=C(C(=O)OC)C1c1cccc(Oc2ccccc2)c1 [ST024552, methyl 5-(methoxycarbonyl)-1,2,6-trimethyl-4-(3-phenoxyphenyl)-1,4-dihydropyridine-3-carboxylate]	–	–	Aβ1-40 (% of control) (Aβ1-40): 57.26 % of control; Aβ1-42 (% of control) (Aβ1-42): 74.81 % of control
COC(=O)C1=C(C)N(C)C(C)=C(C(=O)OC)C1c1ccccn1 [ST024568, methyl 5-(methoxycarbonyl)-1,2,6-trimethyl-4-(2-pyridyl)-1,4-dihydropyridine-3-carboxylate]	–	–	Aβ1-40 (% of control) (Aβ1-40): 67.61 % of control; Aβ1-42 (% of control) (Aβ1-42): 70.13 % of control
